Legend:
Type in all cases: cell-based
[1] = test system: Staphylococcus aureus USA 400 (MRSA); assay: Minimum Inhibitory Concentration (MIC), S. aureus USA 400 (MRSA); settings: % w/v Ca(OCl)2 in water
[2] = test system: Pseudomonas aeruginosa ATCC 27853; assay: Minimum Inhibitory Concentration (MIC), P. aeruginosa; settings: % w/v Ca(OCl)2 in water
[3] = test system: microbes; assay: antibacterial and antimicrobial testing of hypochlorite-ion concentrations (summary statements)
Protocol: Referring now to FIG. 17, the experiments described above for FIG. 14 were also performed with additional foams, one foam in which 1 gram of Calcium hypochlorite salt was infused (D100, shown as left column for each cycle), and one foam in which 2 grams of Calcium hypochlorite salt was dispersed (D200, shown as right column for each cycle). […] As discussed additionally below, the minimum concentration is significant because testing identified concentrations of hypochlorite-ion as low as 0.5-0.7 mM to have effective antibacterial and antimicrobial properties. Additional testing was performed to measure the zone of inhibition (ZOI) and Log Reduction of microbes for various samples of released aqueous solutions having various concentrations of hypochlorite ion, as listed in Tables 2 and 3. Table 2 lists ZOI and Log reduction data for a single cycle measured at hold times (exposure duration) of 30 seconds and 5 minutes of bacterial exposure to solution. Table 3 lists ZOI and Log reduction data for multiple cycles (each cycle including introduction of hypochlorite solution, and removal of solution prior to beginning next cycle). In the ZOI experimentation, foam discs having a diameter of 8 millimeters (mm) and a height of 5 mm were each saturated with hypochlorite-ion solution as indicated. […]

[4] = test system: Pseudomonas aeruginosa ATCC 27853; assay: Log reduction, multiple cycles, P. aeruginosa; settings: 30 seconds per cycle
Protocol: (§1) Referring now to FIG. 17, the experiments described above for FIG. 14 were also performed with additional foams, one foam in which 1 gram of Calcium hypochlorite salt was infused (D100, shown as left column for each cycle), and one foam in which 2 grams of Calcium hypochlorite salt was dispersed (D200, shown as right column for each cycle). […] As discussed additionally below, the minimum concentration is significant because testing identified concentrations of hypochlorite-ion as low as 0.5-0.7 mM to have effective antibacterial and antimicrobial properties. Additional testing was performed to measure the zone of inhibition (ZOI) and Log Reduction of microbes for various samples of released aqueous solutions having various concentrations of hypochlorite ion, as listed in Tables 2 and 3. Table 2 lists ZOI and Log reduction data for a single cycle measured at hold times (exposure duration) of 30 seconds and 5 minutes of bacterial exposure to solution. Table 3 lists ZOI and Log reduction data for multiple cycles (each cycle including introduction of hypochlorite solution, and removal of solution prior to beginning next cycle). In the ZOI experimentation, foam discs having a diameter of 8 millimeters (mm) and a height of 5 mm were each saturated with hypochlorite-ion solution as indicated. Table 3 also lists the initial microbe count in log form (10^X, where X is listed in Table 2), log reduction in microbe count, and ZOI in mm. For the data of Table 3, the initial concentration (1×) of hypochlorite ion in solution was 5.7 mM of hypochlorite ion, which corresponds to 0.041% w/v of Ca(OCl)^2. In the Log reduction experimentation, the microbes were exposed to the respective concentration of solution for 30 seconds per cycle. […] The bold entries in Table 3 are indicative of substantially all microbes being killed. In the biofilm eradication cycles listed in Table 6 below, probes were cultured with microbes and incubated to permit formation of a biofilm on the probe. The probe was then exposed to solutions having various concentrations of Calcium hypochlorite solution for multiple cycles, with each cycle including exposure of the probe to solution for a duration of 5 minutes.

[5] = test system: Staphylococcus aureus ATCC 10832; assay: Minimum Inhibitory Concentration (MIC), S. aureus ATCC 10832; settings: % w/v Ca(OCl)2 in water
[6] = test system: Staphylococcus aureus USA 400 (MRSA); assay: Minimum Bactericidal Concentration (MBC), S. aureus USA 400 (MRSA); settings: % w/v Ca(OCl)2 in water
Protocol: as §1, with “The probe was then exposed to solutions having various concentrations of Calcium hypochlorite solution for multiple cycles, with each cycle including exposure of the probe to solution for a duration of 5 minutes.” left out

[7] = Sample Dilution 1x (5.7 mM hypochlorite ion, 0.041% w/v Ca(OCl)2)
[8] = Sample Dilution 2x of 5.7 mM hypochlorite ion
[9] = Sample Dilution 4x of 5.7 mM hypochlorite ion
[10] = Sample Dilution 8x of 5.7 mM hypochlorite ion (lowest concentration, 0.7 mM)

Substance: hypochlorite ion [OCl^− Solutions]
- Minimum Inhibitory Concentration (MIC) 1 Cycle ([1]; 1 Cycle): <0.005% w/v
- Minimum Inhibitory Concentration (MIC) 3 Cycles ([1]; 3 Cycles): <0.005% w/v
- Minimum Inhibitory Concentration (MIC) 5 Cycles ([1]; 5 Cycles): <0.005% w/v
- Minimum Inhibitory Concentration (MIC) 1 Cycle ([2]; 1 Cycle): <0.005% w/v
- Minimum Inhibitory Concentration (MIC) 3 Cycles ([2]; 3 Cycles): <0.005% w/v
- Minimum Inhibitory Concentration (MIC) 5 Cycles ([2]; 5 Cycles): <0.005% w/v
- lowest concentrations identified to have effective antibacterial and antimicrobial properties [3]: 0.5 to 0.7 mM
- killing of microbes in Log reduction experimentation ([3]; five (5) cycles at the lowest concentration (0.7 mM), 30 seconds per cycle): killed substantially all microbes present
- Log Reduction Pseudomonas aeruginosa ATCC 27853 1 Cycle [4, 7]: −0.16
- Log Reduction Pseudomonas aeruginosa ATCC 27853 3 Cycles [4, 7]: 5.87
- Log Reduction Pseudomonas aeruginosa ATCC 27853 5 Cycles [4, 7]: 5.83
- Log Reduction Pseudomonas aeruginosa ATCC 27853 1 Cycle [4, 8]: −0.98
- Log Reduction Pseudomonas aeruginosa ATCC 27853 3 Cycles [4, 8]: 5.87
- Log Reduction Pseudomonas aeruginosa ATCC 27853 5 Cycles [4, 8]: 5.83
- Log Reduction Pseudomonas aeruginosa ATCC 27853 1 Cycle [4, 9]: −0.48
- Log Reduction Pseudomonas aeruginosa ATCC 27853 3 Cycles [4, 9]: 3.92
- Log Reduction Pseudomonas aeruginosa ATCC 27853 5 Cycles [4, 9]: 5.83
- Log Reduction Pseudomonas aeruginosa ATCC 27853 1 Cycle [4, 10]: −1.11
- Log Reduction Pseudomonas aeruginosa ATCC 27853 3 Cycles [4, 10]: 1.26
- Log Reduction Pseudomonas aeruginosa ATCC 27853 5 Cycles [4, 10]: 5.39
- Minimum Inhibitory Concentration (MIC) 1 Cycle ([5]; 1 Cycle): <0.005% w/v
- Minimum Inhibitory Concentration (MIC) 3 Cycles ([5]; 3 Cycles): <0.005% w/v
- Minimum Inhibitory Concentration (MIC) 5 Cycles ([5]; 5 Cycles): <0.005% w/v
- Minimum Bactericidal Concentration (MBC) 1 Cycle ([6]; 1 Cycle): <0.005% w/v
- Minimum Bactericidal Concentration (MBC) 3 Cycles ([6]; 3 Cycles): <0.005% w/v
- Minimum Bactericidal Concentration (MBC) 5 Cycles ([6]; 5 Cycles): <0.005% w/v

Reference: US11167059B2, “Compositions with reactive ingredients, and wound dressings, apparatuses, and methods” (KCI Licensing, Inc., priority 2010, dated 2021)
